Here are results for 1 substance from patent publication US20220096592A1, “PIC1 VARIANTS WITH IMPROVED SOLUBILITY AND METHODS OF USING THE SAME” (priority 2019, published 2022).

Entries after “also recorded” stand apart in the source; their conditions may differ.

The subject of data set [1] is human platelets. The data set can be described thus: viability of antibody-sensitized human platelets in normal human serum (Presto Blue). The data set is classed as cell-based. The method, then:
For in vitro experiments, platelets were stained with PrestoBlue Cell Viability Reagent as per manufacturer's recommendations. For in vivo experiments, platelets were stained with PKH26 Red Fluorescent Cell Dye as per manufacturer's recommendations.
(§1) For experiments sensitizing platelets with human anti-platelet antibody, purified platelets were treated with 4% ITP sera for 15 minutes at 30° C. before adding 2% normal human complement sufficient sera and incubating for 30 minutes at 37° C. For samples containing PIC1, sera and PIC1 were pre-incubated for 5 minutes before combining with sensitized platelets. Samples were then spun and supernatant was removed for C5a analysis by ELISA. A C5a ELISA kit (R&D Systems) was used per manufacturer's instructions. The cells were washed once with GVBS^−− and once with water to lyse the platelets. The remaining cell pellet was treated with 25 mM methylamine for 1 hour at 37° C., spun, and the supernatant was analyzed for iC3b by ELISA. The ELISA for iC3b was performed as previously described, utilizing a goat anti-human C3 antibody (Complement Technology, Tyler, Tex.) for capture, a mouse anti-human iC3b antibody (Quidel, San Diego, Calif.) for probing, and a goat anti-mouse HRP (Sigma-Aldrich, St Louis, Mo.) for detection.
Cell viability of the platelets was measured by utilizing the vital dye, Presto Blue. […] These effects can be largely reversed in the presence of a classical complement pathway inhibitor.

Data set [2] relates to complement activation. The conditions noted are these: administered intravascularly into rats, by 30 seconds; cited from earlier work.
For data set [3] the following is noted: water, without PEGylation or DMSO. As to the method:
Sarcosine variants and PEG were dissolved in water and the pH was adjusted with NaOH. PA was dissolved in DMSO and then brought up to the final concentration with water resulting in 30% DMSO and pH adjusted. Antibody sensitized sheep erythrocytes (EA), purified C1q and factor B-depleted human sera were purchased from Complement Technology (Tyler, Tex.). Purified myeloperoxidase was purchased from Lee BioSolutions (Maryland Heights, Mo.) and tetramethylbenzidine (TMB) and PicoGreen were purchased from Thermo Fisher (Waltham Mass.).
(PA), peptide derivatives were synthesized with sarcosine residues substituted at all 15 positions. Also included is a peptide in which the vicinal cysteines at positions 9 and 10 (C9,C10) were replaced with a single sarcosine residue.

Data set [4] relates to C3 activation on the platelet surface. The data set can be described thus: iC3b ELISA of antibody-sensitized human platelets in normal human serum. The data set is classed as cell-based. As to the method:
as §1
Human platelets were incubated with sensitizing antibody, NHS, or both. […] Complement attack of the platelets and cell viability were assayed. C3 is the central component of the complement activation cascades. The C3 fragment iC3b is an opsonin that contributes to phagocytosis. […]

Data set [5] concerns Wistar rat sera complement-mediated killing of human platelets. The data set can be described thus: viability of human platelets in Wistar rat sera (Presto Blue). The conditions noted are these: increasing concentrations, vs platelets in normal rat sera, P<0.017, FIG. 7C. The class given is cell-based. The method, then: For experiments using rat sera, purified platelets were incubated with 5% Wistar rat sera at different time points (5 min, 20 min and 60 min) in a 37° C. bath. Thereafter, GVBS^−− was added to the mixture and this was spun at 500 g for 5 min at 22° C. After resuspending with 250 ul of PBS, PrestoBlue was added to the cells at a 1:10 dilution and incubated in a 37° C. water bath for 30 min. The cells were then plated and read on a microplate reader at 530 nm. With the addition of PIC1 to sera, there was a preincubation time of 5 minutes before addition of platelets.
In order to evaluate the extent to which rat sera killing of human platelets is mediated by the classical pathway of complement, we utilized PA-dPEG24.

The subject of data set [6] is purified human neutrophils. The data set can be described thus: NETosis assay (immune complex activated serum and H2O2; PicoGreen free DNA, fluorescence microscopy). The data set is classed as cell-based. The conditions noted are these: neutrophils stimulated with immune complexes, FIG. 5B third row. The method, then: NETosis assays with immune complexes were performed as previously described. Briefly, normal human serum was stimulated with ovalbumin-antiovalbumin immune complexes in GVBS^++ for 30 minutes at 37° C. This mixture along with 0.05% H2O2 was then added to purified human neutrophils resuspended in RPMI with or without sarcosine variants (2 mM), allowing NETosis to occur. Quantitation of free DNA released from the neutrophils was performed using PicoGreen. Slides were stained with DAPI (Southern Biotech, Birmingham, Ala.). The following antibodies were used to visualize formation of NETs: • (i) mouse anti-elastase (Invitrogen, Carlsbad, Calif.) as a primary antibody with the secondary goat anti-mouse antibody Alexa Fluor 568 (Novus Biologicals, Centennial, Colo.) and • (ii) rabbit anti-histone H3 (Abcam, Cambridge Mass.) with goat anti-rabbit antibody Alexa Fluor 488 (Novus Biologicals). Fluorescence microscopy using an Olympus BX53 microscope was performed to visualize NETs.
The peptide variants were tested for inhibition of NETosis. In this assay, purified human neutrophils were stimulated with normal human serum activated with ovalbumin-antiovalbumin immune complexes and hydrogen peroxide. Free DNA expressed from the neutrophils was then measured in a PicoGreen assay. […] Direct visualization of neutrophil extracellular trap (NET) formation by fluorescence microscopy was used to confirm the above NETosis results with the 18 variant. Human neutrophils were purified and stimulated on glass slides then stained with DAPI to visualize DNA and probed with anti-neutrophil elastase (αNE) and anti-histone H3 (αhistone), as previously described. […] Fluorescence microscopy visualization of NETs confirmed the findings seen for quantitative measurements of free DNA.

Data set [7] has as its system complement-mediated hemolysis of the patient's erythrocytes. The data set can be described thus: hemolytic complement assay with plasma and erythrocytes of a DHTR patient. The class given is cell-based, human. The conditions noted are these: complement permissive buffer GVBS++, increasing concentrations, FIG. 13; listed as PIC1. As to the method: Discarded de-identified blood was obtained from routine medical management blood draws from the patient prior to treatment with eculizumab. […] Complement permissive GVBS^++ buffer is veronal-buffered saline with 0.1% gelatin, 0.15 mM CaCl2, and 1 mM MgCl2 [11]. Complement inhibitory buffer GVBS^−− is a veronal-buffered saline with 0.1% gelatin and 10 mM EDTA. Approximately 5×10^7 washed erythrocytes were incubated with 20% plasma in a reaction volume of 0.15 ml for 1 hour at 37° C.
Erythrocytes were sedimented by centrifugation at 1,500×g for 5 minutes and the supernatant was then recovered. The supernatant was measured on a Bio Tek Synergy HT plate reader spectrophotometer for absorption at 412 nm. Hemolysis was measured by quantitation of free hemoglobin on the spectrophotometer at 412 nm.

In data set [8] the test system is C5a generation. The experiment in a line: C5a ELISA of supernatant, antibody-sensitized human platelets in normal human serum. The data set is classed as cell-based. The method, then: as §1
Plasma recovered from these experiments was then assayed for the pro-inflammatory anaphylatoxin C5a by ELISA.
On the technique in general: An ELISA detects its analyte on a solid surface through an enzyme-linked reagent.

With “H2N-IALILEPICCQERAA-dPEG24 (H-IALILEPICCQERAA-dPEG24; cysteine pairing not given here) [PA-dPEG24, 15-amino acid PEGylated peptide, 24 PEG moieties at the C-terminus]”, in data set [1] (1.5 mM, P=0.031), the “increase in platelet viability, in words” value is “Significant increases in platelet viability”. Further, in data set [1] (3.0 mM, P=0.003), the “increase in platelet viability” value worked out at 53%. For the same substance, in data set [1] (sensitizing antibody and NHS, increasing concentrations, FIG. 6C), the “platelet viability, dose response” value is “Platelet viability dose-dependently increased”. For the same substance, the “systemic inhibition of complement activation” value in data set [2] was > 90%. Moreover, the “H2O Soluble” value in data set [3] is recorded as “No”. In data set [4] (0.8 mM), the “iC3b bound to platelets” value is on record as “level similar to that of the background level measured for sensitizing antibody alone”. The “iC3b opsonization of platelets, dose response” value in data set [4] (sensitizing antibody and NHS, increasing concentrations, FIG. 6A) is given as “decreased iC3b opsonization of the platelets in a dose-dependent manner”. Besides, the “viability of human platelets in rat sera” value in data set [5] is given as “dose-dependent improvement in platelet viability; also recorded: improved survival for human platelets in rat sera for all doses tested compared to control”. Besides, the “NET formation by fluorescence microscopy” value in data set [6] is listed as “dramatic reduction in NETs”. In addition, in data set [7], the “hemolysis of patient erythrocytes by patient plasma” value was “statistically significant dose-dependent decrease of hemolysis; also recorded: inhibited hemolysis to the background signal; also recorded: completely blocked at higher doses”. Also, the “inhibition of C5a generation, in words” value in data set [8] (1.5 mM, P=0.028) is on record as “Significant inhibition of C5a generation”. Also, in data set [8] (3.0 mM, P=0.006), the “decrease of C5a generation” value worked out at 44%. Moreover, in data set [8] (sensitizing antibody and NHS, increasing concentrations, FIG. 6B), the “C5a generation, dose response” value was “dose-dependently inhibited C5a generation”.
